Reference: BindingDB's records for doi:10.3109/14756366.2013.776556 (King Fahd University of Petroleum & Minerals, 2014)

Legend:
[1] = target: T1, 5-hydroxytryptamine receptor 1A (Homo sapiens, UniProt P08908); experiment: Binding Affinity Assay; settings: pH 7.4; 37 °C
T1 sequence (P08908 whole entry): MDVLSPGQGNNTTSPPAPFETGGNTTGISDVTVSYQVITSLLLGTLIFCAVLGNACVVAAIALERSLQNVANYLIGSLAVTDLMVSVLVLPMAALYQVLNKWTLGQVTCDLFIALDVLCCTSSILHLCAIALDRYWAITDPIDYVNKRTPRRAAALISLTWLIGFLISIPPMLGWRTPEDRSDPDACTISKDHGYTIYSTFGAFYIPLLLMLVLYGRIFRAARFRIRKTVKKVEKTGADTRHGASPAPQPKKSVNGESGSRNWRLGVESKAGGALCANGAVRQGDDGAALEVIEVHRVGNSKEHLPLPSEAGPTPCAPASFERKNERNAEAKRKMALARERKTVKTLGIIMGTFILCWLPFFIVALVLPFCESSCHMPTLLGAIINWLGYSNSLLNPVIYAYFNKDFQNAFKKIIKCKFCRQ
Experimental: Human-cloned 5-HT1A serotonin receptors stably expressed in HEK293-EBNA cells (Perkin-Elmer, Waltham, MA) were radiolabeled with 1.0nM [3H]-8-OH-DPAT [Fargin et al., J. Biol. Chem., 264:[…]]. Samples containing 32 μg of membrane protein, different concentrations of each compound ranging from 0.1nM to 10 μM were incubated in a final volume of 500 μL of 50mM Tris-HCl pH 7.4, 5mM MgSO4for 120 min at 37 °C. After this incubation time, samples were filtered through Whatman GF/C glass microfiber filters presoaked in polyethylenimine 0.5% for at least 30 min prior to use. The filters were washed twice with 1mL of ice-cold buffer (50mM Tris-HCl, pH 7.4). Nonspecific binding was determined in the presence of 10 μM 5-HT. The radioactivity bound to the filters was measured by liquid scintillation using the LS6500 Multi-Purpose scintillation Counter, Beckman.

D(2) dopamine receptor = D(2) dopamine receptor (Homo sapiens, UniProt P14416); experiment: Binding Affinity Assay; settings: pH 7.4; 25 °C
D(2) dopamine receptor, sequence (P14416 whole entry): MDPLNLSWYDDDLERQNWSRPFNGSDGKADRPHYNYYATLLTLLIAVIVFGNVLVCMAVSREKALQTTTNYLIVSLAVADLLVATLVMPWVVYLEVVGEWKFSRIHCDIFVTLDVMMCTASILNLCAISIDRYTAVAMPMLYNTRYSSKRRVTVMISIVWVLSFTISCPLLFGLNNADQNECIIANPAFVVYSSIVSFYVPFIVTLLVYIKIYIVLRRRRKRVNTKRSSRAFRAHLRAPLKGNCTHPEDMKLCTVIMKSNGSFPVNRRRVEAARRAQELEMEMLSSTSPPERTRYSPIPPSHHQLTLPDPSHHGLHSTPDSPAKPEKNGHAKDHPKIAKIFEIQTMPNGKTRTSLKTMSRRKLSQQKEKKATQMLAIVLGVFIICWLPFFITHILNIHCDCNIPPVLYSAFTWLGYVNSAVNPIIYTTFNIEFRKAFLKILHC
Experimental: The samples were incubated for 120 min at 25 °C, then the incubation was stopped by rapid filtration through Whatman GF/C glass fiber filters (presoaked in 0.5% polyethylenimine for 60 min). The filters were washed three times in 1mL of ice-cold 50mM Tris, 0.9% NaCl, pH 7.4. Nonspecific binding was determined in the presence of 10 μM haloperidol. The radioactivity bound to the filters was measured by liquid scintillation using a LS6500 Multi-Purpose scintillation Counter, Beckman.

Row | Compound | Ki [1] | Ki (D(2) dopamine receptor)
1 | O=c1[nH]c2ccc(C3CCN(Cc4cncc(-c5ccc(F)cc5)c4)CC3)cc2[nH]1 [5-(1-((5-(4-Fluorophenyl)pyridin-3-yl)methyl)piperidin-4-yl)-1H-benzo[d]imidazol-2(3H)-one (5d)] | 9.42 nM | 24.6 nM
2 | O=c1[nH]c2ccc(C3CCN(Cc4cccc(C5=CCCC5)c4)CC3)cc2[nH]1 [5-(1-(3-cyclopentenylbenzyl)piperidin-4-yl)-1H-benzo[d]imidazol-2(3H)-one (5e)] | 1.2 nM | 8.12 nM
3 | O=c1[nH]c2ccc(C3CCN(Cc4ccc(-c5ccccc5)cc4)CC3)cc2[nH]1 [5-(1-(biphenyl-4-ylmethyl)piperidin-4-yl)-1H-benzo[d]imidazol-2(3H)-one (5a)] | 34.2 nM | 96.2 nM
4 | O=c1[nH]c2ccc(N3CCN(Cc4cncc(C5=CCCC5)c4)CC3)cc2[nH]1 [5-(4-((5-cyclopentenylpyridin-3-yl)methyl)piperazin-1-yl)-1H-benzo[d]imidazol-2(3H)-one (6f)] | 1.7 nM | 3.1 nM
5 | O=c1[nH]c2ccc(N3CCN(Cc4cncc(-c5ccccc5)c4)CC3)cc2[nH]1 [5-(4-((5-phenylpyridin-3-yl)methyl)piperazin-1-yl)-1H-benzo[d]imidazol-2(3H)-one (6c)] | 5.3 nM | 12.6 nM
6 | O=c1[nH]c2cccc(N3CCN(Cc4cccc(-c5ccccc5)c4)CC3)c2o1 | 7.19 nM | 
7 | O=c1[nH]c2ccc(N3CCN(Cc4cncc(-c5ccc(F)cc5)c4)CC3)cc2[nH]1 [5-(4-((5-(4-fluorophenyl)pyridin-3-yl)methyl)piperazin-1-yl)-1H-benzo[d]imidazol-2(3H)-one (6d)] | 11.4 nM | 82 nM
8 | O=c1[nH]c2ccc(C3CCN(Cc4cncc(-c5ccccc5)c4)CC3)cc2[nH]1 [5-(1-((5-phenylpyridin-3-yl)methyl)piperidin-4-yl)-1H-benzo[d]imidazol-2(3H)-one (5c)] | 6.72 nM | 18.5 nM
9 | O=c1[nH]c2ccc(C3CCN(Cc4ccc(-c5ccc(F)cc5)cc4)CC3)cc2[nH]1 [5-(1-((4'-Fluorobiphenyl-4-yl)methyl)piperidin-4-yl)-1H-benzo[d]imidazol-2(3H)-one (5b)] | 16.2 nM | 34.4 nM
10 | Fc1ccc(-c2cncc(CN3CCN(c4cccc5c4OCCO5)CC3)c2)cc1 [1-(2,3-dihydro-1,4-benzodioxin-5-yl)-4-[[5-(4-fluorophenyl)pyridin-3-yl]methyl]piperazine] | 8.64 nM | 8.4 nM
11 | O=c1[nH]c2ccc(N3CCN(Cc4ccc(-c5ccccc5)cc4)CC3)cc2[nH]1 [5-(4-(biphenyl-4-ylmethyl)piperazin-1-yl)-1H-benzo[d]imidazol-2(3H)-one (6a)] | 46.3 nM | 42.2 nM
12 | O=c1[nH]c2ccc(C3CCN(Cc4cncc(C5=CCCC5)c4)CC3)cc2[nH]1 [5-(1-((5-cyclopentenylpyridin-3-yl)methyl)piperidin-4-yl)-1Hbenzo[d]imidazol-2(3H)-one (5f)] | 6.3 nM | 4.26 nM
13 | O=c1[nH]c2ccc(N3CCN(Cc4cccc(C5=CCCC5)c4)CC3)cc2[nH]1 [5-(4-(3-cyclopentenylbenzyl)piperazin-1-yl)-1H-benzo[d]imidazol-2(3H)-one (6e)] | 3.1 nM | 10.4 nM
14 | O=c1[nH]c2ccc(N3CCN(Cc4ccc(-c5ccc(F)cc5)cc4)CC3)cc2[nH]1 [5-(4-((4'-fluorobiphenyl-4-yl)methyl)piperazin-1-yl)-1H-benzo[d]imidazol-2(3H)-one (6b)] | 27.2 nM | 62.6 nM
